In patent US20030190357A1, “Compositions for delivery of a cortisol antagonist” (priority 2000, published 2003):

Assay: solubility of ketoconazole in oleic acid
Type: physicochemical
Settings: ambient room temperature, 48 h
Procedure: The solubility of ketoconazole in oleic acid was assessed at ambient room temperature using the method described in Example 1. Samples containing 5, 10, 15 and 33 wt. % of ketoconazole were mixed with oleic acid and the appearance of undissolved ketoconazole was investigated after 24 and 48 h. After 24 hours samples containing 5 wt. % ketoconazole were completely dissolved and after 48 h samples containing 10 wt. % of ketoconazole were completely homogenous and all ketoconazole was dissolved. Thus the solubility of ketoconazole in oleic acid is estimated to be about 10 wt. %.

solubility of ketoconazole in oleic acid: about 10 wt. %
SMILES: CC(=O)N1CCN(c2ccc(OCC3COC(Cn4ccnc4)(c4ccc(Cl)cc4Cl)O3)cc2)CC1 (stereo not shown) [ketoconazole, Ketoconazole]
